Laboratory results published in the supplement of paper PMC5412046.
Counter-ions that a name gives are not always drawn.

Legend:
SB.mhdgc-1 [1] = experiment: viability at highest tested concentration (MAXR) relative to DMSO; higher = less cytotoxic; conditions: SB.mhdgc-1 (hereditary c.1380delA CDH1 gastric cancer)
Procedure, shortened: (§1)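 Reported here is DMSO-normalised viability, either at the highest concentration or as a trapezoidal area under the curve. Hereditary or sporadic patient-derived gastric cancer cells received compound by pintool at 11 threefold-diluted concentrations and were read with CellTiter-Glo after 48 h.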

SB.msgc-1 [2] = experiment: as above; conditions: SB.msgc-1 (sporadic gastric cancer)
Procedure, shortened: as §1

SB.mhdgc-1 [3] = experiment: area under the dose-response curve of % viability (trapezoidal, 11 doses) (% viability x log10 concentration); higher = less cytotoxic; conditions: SB.mhdgc-1 (hereditary c.1380delA CDH1 gastric cancer)
Procedure, shortened: as §1

SB.msgc-1 [4] = experiment: as above; conditions: SB.msgc-1 (sporadic gastric cancer)
Procedure, shortened: as §1

| SMILES | viability (SB.mhdgc-1 [1]) | viability (SB.msgc-1 [2]) | area under the dose-response curve (SB.mhdgc-1 [3]) | area under the dose-response curve (SB.msgc-1 [4]) |
| --- | --- | --- | --- | --- |
| NC(=O)c1ccc(-c2nc(-c3ccc4c(c3)OCCO4)c(-c3ccccn3)[nH]2)cc1 [D-4476] (top concentration 46.0829 µM) | 85.8% | 42.5% | 584 | 512 |
| CCCC(C)(COC(N)=O)COC(=O)NC(C)C (stereo unspecified) [Carisoprodol] (top concentration 46.0829 µM) | 98.1% | 120% | 515 | 538 |
| O=C1\C=C(/OC2=C1C=CC=C2C3=CC=CC=C3)N4CCOCC4 (top concentration 46.0829 µM) | 37.1% | 42.6% | 436 | 461 |
| Cc1cccc(Nc2nc(N[C@@H]3CCCC[C@@H]3N)ncc2C(N)=O)c1 (top concentration 46.0829 µM) | 1.91% | 24.7% | 425 | 483 |
| O=C(Cc1ccc(-c2ccc(OCCN3CCOCC3)cc2)cn1)NCc1ccccc1 [KX-01] (top concentration 46.0829 µM) | 44.6% | 39.1% | 360 | 320 |
| Cc1ccc([S+](=O)([O-])OCC(=O)Nc2ccc(C(=O)O)c(O)c2)cc1 [S31-201] (top concentration 46.0829 µM) | 89.1% | 112% | 518 | 509 |
| CC[C@H]1OC(=O)[C@H](C)[C@@H](O[C@H]2C[C@@](C)(OC)[C@@H](O)[C@H](C)O2)[C@H](C)[C@@H](O[C@@H]2O[C@@H](C)C[C@H](N(C)C)[C@H]2O)[C@](C)(O)C[C@@H](C)C(=O)[C@H](C)[C@@H](O)[C@]1(C)O [Erythromycin] (top concentration 46.0829 µM) | 91% | 80.6% | 445 | 515 |
| CN1c2ccccc2C(=O)N2CCc3c([nH]c4ccccc34)C21 (stereo unspecified) [Evodiamine] (top concentration 46.0829 µM) | 58.1% | 65% | 546 | 531 |
| Cc1c(O)cccc1C(=O)N[C@@H](CSc1ccccc1)[C@H](O)CN1C[C@H]2CCCC[C@H]2C[C@H]1C(=O)NC(C)(C)C [Viracept] (top concentration 46.0829 µM) | 3.25% | 20% | 431 | 486 |
| CN[C@@H]1[C@H](O)[C@H](NC)[C@H]2O[C@@]3(O)C(=O)C[C@@H](C)O[C@H]3O[C@@H]2[C@H]1O [Spectinomycin hydrochloride] (top concentration 46.0829 µM) | 1.14% | 6.98% | 315 | 328 |
| CCOc1cc(N2CCC(O)CC2)ccc1Nc1ncc2c(n1)N(C)c1ccccc1C(=O)N2C [XMD8-92] (top concentration 46.0829 µM) | 37.5% | 18.8% | 423 | 464 |
| CCOc1ccccc1OCCNC(C)Cc1ccc(OC)c([S+](N)(=O)[O-])c1 (stereo unspecified) [Tamsulosin hydrochloride] (top concentration 46.0829 µM) | 111% | 105% | 531 | 543 |
| c1ccc2c(CN3CCNCC3)cccc2c1 [NMP] (top concentration 46.0829 µM) | 7.38% | 89.5% | 520 | 491 |
| OC1=CC(=C(C=C1)\C2=C(O)\C(=O)C3=C(O2)C=C(O)C=C3O)O [Morin hydrate] (top concentration 46.0829 µM) | 132% | 105% | 530 | 516 |
| COc1cccc2c1C(=O)c1c(O)c3c(c(O)c1C2=O)C[C@@](O)(C(=O)CO)C[C@@H]3O[C@H]1C[C@H](N)[C@H](O)[C@H](C)O1 [Doxorubicin] (top concentration 46.0829 µM) | 41.4% | 42.6% | 350 | 386 |
| COc1cc(C)c(Sc2cnc(NC(=O)c3ccc(CNC(C)C(C)(C)C)cc3)s2)cc1C(=O)N1CCN(C(C)=O)CC1 (stereo unspecified) (top concentration 46.0829 µM) | 2.03% | 21.1% | 387 | 505 |
| CN(C)CCOC(c1ccccc1)c1ccccc1 [Diphenhydramine] (top concentration 46.0829 µM) | 10.1% | 45.7% | 452 | 454 |
| CC(=O)CC(C1=CC=CC=C1)C/2=C(O)/C3=CC=CC=C3OC2=O (stereo unspecified) [Warfarin sodium] (top concentration 46.0829 µM) | 114% | 104% | 501 | 548 |
| CN(C)c1ccccc1CN1CCCN(Cc2ccccc2N(C)C)C1c1ccncc1 [GANT61] (top concentration 46.0829 µM) | 1.19% | 57.8% | 472 | 502 |
